This note sets out measurements from patent US6689803B2, “Compositions and methods for treating surgical adhesions” (Angiotech Pharmaceuticals, Inc., priority 1996, dated 2004).

Series [1] is described as follows: Solubility / complexation of paclitaxel with cyclodextrins. The series is classed as physicochemical. Here is the method: The mobile phase was composed of a mixture of acetonitrile, methanol and water (58:5:37) at a flow rate of 1.0 ml/minute.
The subject of series [2] is AP-1 DNA binding activity. Description: IL-1 induced AP-1 DNA binding (gel mobility shift). The format is cell-based. The following applies: 10^−7 to 10^−5 M, pretreated 24 hours.
Method: Binding activity was assayed with a radiolabeled human AP-1 sequence probe and gel mobility shift assay. […] The “com” lane contains excess unlabeled AP-1 oligonucleotide. The results shown are representative of tree independent experiments.
In a further series the test system is human keratinocytes. Description: Keratinocyte viable cell number (trypan blue exclusion). The format is cell-based. The following applies: 4 days.
Another series deals with synovial fibroblasts. The series can be described thus: Synoviocyte proliferation (trypan blue dye exclusion). Particulars: 24 hours.
Series [3] in a line: In vitro release of paclitaxel from polymeric formulations. The format is physicochemical. Particulars: for paclitaxel released: 10 days in PBS. Here is the method: The tube was incubated at 37° C. with gentle rotational mixing. […] The supernatant (10 ml) was extracted with 1 ml methylene chloride. […] The injection volume was 20 μl and the flow rate was 1 ml/minute.
An equal volume of PBS was replaced in each tube to maintain sink conditions throughout the study.
Sampling daily (three sampling at the first day) to maintain the sink condition.

Converted amounts (≈) assume the structure as drawn.

Method for human keratinocytes: Following incubation, cells were collected and counted by the trypan blue exclusion assay.

For `CC(=O)O[C@H]1C(=O)[C@@]2(C)[C@H]([C@H](OC(=O)c3ccccc3)[C@]3(O)C[C@H](OC(=O)[C@H](O)[C@@H](NC(=O)c4ccccc4)c4ccccc4)C(C)=C1C3(C)C)[C@]1(OC(C)=O)CO[C@@H]1C[C@@H]2O` [paclitaxel], the concentration in solution in series [1] (50% HPβ-CD in water, aqueous with cosolvent or surfactant or cyclodextrin, thermodynamic from solid, 50% solution of HPβ-CD in water, 37° C.) (solubility) was 3200 µg/mL (≈ 3.75 mM). Besides, in series [1] (50% solution of HPβ-CD in water, 37° C.), the “increase over the solubility of paclitaxel in water” value is about 2000 fold. Also, the apparent stability constant in series [1] (HPβ-CD in the presence of 50% ethanol) was 26.57 M⁻¹. Moreover, the “stability constant, first order complex” value was determined as 7.2 M⁻¹ in series [1] (HPβ-CD, 37° C.); 5.8 M⁻¹ in series [1] (HPγ-CD, 37° C.); 3.1 M⁻¹ in series [1] (γ-CD, 37° C.). For the same compound, the “stability constant lower than in the absence of ethanol” value in series [1] (HPβ-CD, 50% ethanol) was “about 300 times”. For the same compound, the “IL-1 induced AP-1 binding activity” value in series [2] was “decreased”. In addition, the cell viability entry was “significant drop in cell viability” with human keratinocytes (10^−7 M or higher), 87 % of untreated controls with human keratinocytes (10^−8 M) and “greater than 100 % of untreated controls” with human keratinocytes (10^−9 M). Moreover, the “toxicity to synovial fibroblasts” value in the series with synovial fibroblasts (10^−6 M and 10^−5 M) is listed as “toxic”. Besides, the “inhibiting proliferation of the synoviocytes at concentrations as low as” value with synovial fibroblasts was 10^−7 M. Also, the paclitaxel released came to 400 µg in series [3] (5 mg of 30% loaded PLLA microspheres) and 150 µg in series [3] (10% loaded PLLA microspheres). The “released fraction of total drug content” value in series [3] (5% paclitaxel loaded PCL microspheres, after 21 days, PBS 37° C.) is on record as “about 20%”. The released paclitaxel is 6% in series [3] (20% paclitaxel loaded 0:100 PDLLA:PCL (PCL) paste, within 10 days); 11% in series [3] (20% paclitaxel loaded 70:30 PDLLA:PCL paste, within 10 days); 17% in series [3] (20% paclitaxel loaded 80:20 PDLLA:PCL paste, within 10 days); 25-35% in series [3] (20% paclitaxel loaded 90:10 PDLLA:PCL paste, within 10 hours); 2% in series [3] (20% paclitaxel loaded PDLLA-PEG-PDLLA cylinder, 20% PEG, 1 mm, 30 days); 26% in series [3] (20% paclitaxel loaded PDLLA-PEG-PDLLA cylinder, 30% PEG, 0.65 mm, 30 days). The released paclitaxel in series [3] (20% paclitaxel loaded PDLLA-PEG-PDLLA cylinder, 30% PEG, 1 mm, 30 days, PBS albumin 37° C.) is 17%. Also, in series [3] (paclitaxel-nylon microcapsules, after 72 hours), the drug released entry is listed as “more than 95%”.
